{
  "source": "paper PMC5623190",
  "about": "“Target Identification of Mycobacterium tuberculosis Phenotypic Hits Using a Concerted Chemogenomic, Biophysical, and Structural Approach” (Frontiers in Pharmacology, 2017)",
  "key": {"M. tuberculosis EthR": {"target": "M. tuberculosis EthR (Mycobacterium tuberculosis, UniProt P9WMC1)", "sequence (P9WMC1 whole entry, looked up)": "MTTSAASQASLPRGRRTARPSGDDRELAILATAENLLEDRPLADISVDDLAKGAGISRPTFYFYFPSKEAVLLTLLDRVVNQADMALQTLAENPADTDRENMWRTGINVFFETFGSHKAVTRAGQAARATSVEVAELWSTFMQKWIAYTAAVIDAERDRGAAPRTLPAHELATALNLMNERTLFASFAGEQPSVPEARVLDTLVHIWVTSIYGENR", "test": "Surface plasmon resonance assay of EthR binding to ethA promoter DNA", "settings": "for LE (ligand efficiency): ligand efficiency for EthR inhibition", "description": "The surface plasmon resonance (SPR) assay was performed on a BIAcore T100 with a protocol similar to what was previously described (Surade et al., [2014]). […] For the initial screening a single run was performed for each compound. A 2 μM EthR solution was then incubated individually with each of the compounds at 100 μM, in 2 mM MgCl2, 10 mM TRIS/HCL pH 7.5, 200 mM NaCl, 0.1 mM EDTA, and 2% DMSO and flowed over the chip at 20 μl/min for 120 s. For dissociation 150 s were given using the same flow rate. Binding was determined by subtracting the response of the control channel from the experimental channel at steady-state. Regeneration of the chip was performed between samples by flowing 0.03% SDS in running buffer for 60 s at 20 μl/min. […] Data were analyzed in Prism 5 (Graphpad software) and IC50 were calculated using a non-linear regression model. Dose response experiments were performed in triplicate."}, "[1]": {"tested_on": "Mycobacterium tuberculosis H37Rv", "design": "method as in Ballell et al., 2013", "settings": "M. tuberculosis whole cell; ref Ballell et al., 2013; cited from earlier work"}, "InhA": {"target": "InhA (Mycobacterium tuberculosis, UniProt P9WGR1)", "sequence (P9WGR1 whole entry, looked up)": "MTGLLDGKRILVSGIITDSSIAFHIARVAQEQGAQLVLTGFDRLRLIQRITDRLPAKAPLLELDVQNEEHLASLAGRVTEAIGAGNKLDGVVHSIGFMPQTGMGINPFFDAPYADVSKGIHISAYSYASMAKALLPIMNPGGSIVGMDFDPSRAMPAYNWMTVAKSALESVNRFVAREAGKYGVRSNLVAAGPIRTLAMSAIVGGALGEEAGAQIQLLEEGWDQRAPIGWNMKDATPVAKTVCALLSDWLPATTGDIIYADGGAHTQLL", "test": "InhA spectrophotometric enzymatic assay (NADH oxidation, 2-trans-octanoyl-CoA)", "assay_type": "biochemical", "settings": "compound at 100 μM, 100 nM InhA, triplicate", "description": "InhA activity was assessed by a spectrophotometric assay that followed the oxidation of NADH at λ = 340 nm in the presence of 2-trans-octanoyl-CoA. Compounds were dissolved in 100% DMSO. The enzyme reaction contains 30 mM PIPES pH 7.5, 50 mM NaCl, 1% (v/v) DMSO and 0.1 mM EDTA. InhA (100 nM) was pre-incubated for 10 min at room temperature with 0.25 mM NADH and compounds at a final concentration of 100 μM in 150 μl reaction volume. The reaction is started by the addition of 2-trans-octanoyl-CoA at a final concentration of 1.5 mM, prepared as described previously (He et al., [2006]). The reactions were followed for 20 min using a spectrophotometer plate reader (CLARIOstar—BMG LABTECH). Inhibition percentage was calculated based on the initial rates of reaction. All experiments were performed in triplicate."}, "[2]": {"settings": "inhibition of EthR binding to ethA promoter DNA"}, "[3]": {"settings": "IC50, SPR dose response 0.78-100 μM, triplicate, table head prints no unit, μM"}, "[4]": {"settings": "SPR dose response 0.78-100 μM, triplicate, table head prints no unit, μM, read-out: IC50"}},
  "note": "Values joined by “and” are separate entries in the source; they are usually repeats but may differ in a detail not shown here. Identical values can stand only once. Like-named read-outs stand apart in the source and are kept apart here.",
  "data": [
    {"smiles": "Br.CC1(C)NC(N)=NC(=N)N1OCCCOc1ccc(Cl)cc1Cl", "note": "[BRL-51091am]", "values": [
      {"measurement": "SPR Inhibition (%)", "setting": "M. tuberculosis EthR; [2]", "value": 41, "unit": "%"}
    ]},
    {"smiles": "O=C(NC1=NCCS1)c1sc2cc(F)ccc2c1Cl", "note": "[Compound 1]", "values": [
      {"measurement": "MIC", "setting": "[1]", "value": 8.6, "unit": "µM"},
      {"measurement": "inhibition at 100 µM", "setting": "M. tuberculosis EthR", "value": 100, "unit": "%"},
      {"measurement": "IC50", "setting": "M. tuberculosis EthR; [3]", "value": "~12 µM and 12 µM"},
      {"measurement": "LE (ligand efficiency)", "setting": "M. tuberculosis EthR", "value": 0.35}
    ]},
    {"smiles": "O=C(Cc1ccc(F)cc1)Nc1nc(-c2ccccn2)cs1", "note": "[Compound 2]", "values": [
      {"measurement": "MIC", "setting": "[1]", "value": 9.3, "unit": "µM"},
      {"measurement": "inhibition at 100 µM", "setting": "M. tuberculosis EthR", "value": 100, "unit": "%"},
      {"measurement": "IC50", "setting": "M. tuberculosis EthR; [3]", "value": 9.9, "unit": "µM"},
      {"measurement": "LE (ligand efficiency)", "setting": "M. tuberculosis EthR", "value": 0.31}
    ]},
    {"smiles": "O=C(C1CCN(c2nnc(-n3cccc3)s2)CC1)N1CCC(Cc2ccccc2)CC1", "note": "[Compound 3]", "values": [
      {"measurement": "MIC", "setting": "[1]", "value": 4.2, "unit": "µM"},
      {"measurement": "inhibition at 100 µM", "setting": "M. tuberculosis EthR", "value": 100, "unit": "%"},
      {"measurement": "IC50", "setting": "M. tuberculosis EthR; [3]", "value": 3.9, "unit": "µM"},
      {"measurement": "LE (ligand efficiency)", "setting": "M. tuberculosis EthR", "value": 0.24}
    ]},
    {"smiles": "c1ccc(-c2csc(Nc3nc4cc5c(cc4s3)OCO5)n2)nc1", "note": "[Compound 4]", "values": [
      {"measurement": "MIC", "setting": "[1]", "value": 2.7, "unit": "µM"},
      {"measurement": "IC50", "setting": "M. tuberculosis EthR; [4]", "value": "~13 µM and 13 µM"},
      {"measurement": "Inhibition (100 μM) (%)", "setting": "M. tuberculosis EthR; SPR, inhibition of EthR binding to DNA, compound at 100 μM, 2 μM EthR, single run", "value": 100, "unit": "%"},
      {"measurement": "LE (ligand efficiency)", "setting": "M. tuberculosis EthR", "value": 0.28}
    ]},
    {"smiles": "Clc1ccc(Nc2nc(-c3ccccn3)cs2)nc1", "note": "[Compound 5]", "values": [
      {"measurement": "MIC", "setting": "[1]", "value": 5.9, "unit": "µM"},
      {"measurement": "inhibition at 100 µM", "setting": "M. tuberculosis EthR", "value": 99, "unit": "%"}
    ]},
    {"smiles": "Fc1ccc2nc(Nc3nc(-c4ccccn4)cs3)sc2c1", "note": "[Compound 6]", "values": [
      {"measurement": "MIC", "setting": "[1]", "value": 2.3, "unit": "µM"},
      {"measurement": "inhibition at 100 µM", "setting": "M. tuberculosis EthR", "value": 97, "unit": "%"},
      {"measurement": "IC50", "setting": "M. tuberculosis EthR; [3]", "value": 22, "unit": "µM"},
      {"measurement": "LE (ligand efficiency)", "setting": "M. tuberculosis EthR", "value": 0.30}
    ]},
    {"smiles": "O=C(COc1cccc(F)c1)Nc1nc(-c2ccccn2)cs1", "note": "[Compound 7]", "values": [
      {"measurement": "inhibition at 100 µM", "setting": "M. tuberculosis EthR", "value": 93, "unit": "%"},
      {"measurement": "IC50", "setting": "M. tuberculosis EthR; [4]", "value": 50, "unit": "µM"},
      {"measurement": "LE (ligand efficiency)", "setting": "M. tuberculosis EthR", "value": 0.26}
    ]},
    {"smiles": "CCc1ccc(Nc2nnc(SCc3cc(C)on3)s2)cc1", "note": "[Compound 8]", "values": [
      {"measurement": "inhibition at 100 µM", "setting": "InhA", "value": "> 40", "unit": "%"},
      {"measurement": "MIC", "setting": "[1]", "value": 2.8, "unit": "µM"},
      {"measurement": "inhibition at 100 µM", "setting": "M. tuberculosis EthR", "value": 92.8, "unit": "%"}
    ]},
    {"smiles": "CSc1ccc(C(=O)Nc2nc(-c3ccccn3)cs2)cc1", "note": "[Compound 10]", "values": [
      {"measurement": "MIC", "setting": "[1]", "value": 8.7, "unit": "µM"},
      {"measurement": "inhibition at 100 µM", "setting": "M. tuberculosis EthR", "value": 74, "unit": "%"}
    ]},
    {"smiles": "Nc1ccccc1Nc1ccc2c(c1)OCO2", "note": "[Compound 12]", "values": [
      {"measurement": "MIC", "setting": "[1]", "value": 1.8, "unit": "µM"},
      {"measurement": "inhibition at 100 µM", "setting": "M. tuberculosis EthR", "value": 67, "unit": "%"},
      {"measurement": "IC50", "setting": "M. tuberculosis EthR; SPR IC50 (µM), inhibition of EthR binding to ethA promoter DNA", "value": "> 100", "unit": "µM"}
    ]},
    {"smiles": "N=C(Nc1nc(-c2ccccn2)cc2ccccc12)c1cccc(Cl)c1", "note": "[GSK381407a]", "values": [
      {"measurement": "SPR Inhibition (%)", "setting": "M. tuberculosis EthR; [2]", "value": 59, "unit": "%"}
    ]},
    {"smiles": "CCCCS(=O)(=O)Nc1ccc2cnn(C)c2c1", "note": "[GSK3011724a]", "values": [
      {"measurement": "SPR Inhibition (%)", "setting": "M. tuberculosis EthR; [2]", "value": 28, "unit": "%"}
    ]}
  ]
}
